Values quoted from earlier work as cited in patent US7960544B2, “Useful indole compounds” (Ironwood Pharmaceuticals, Inc., priority 2005, dated 2011).
One block for each molecule: values may come before it.

Columns and labels:
MCF-7 cells = conditions: up to 100 μM
DAO = DAO (Homo sapiens, UniProt P14920)
CCR3 = conditions: cross-desensitization

DAO, sequence (P14920 whole entry): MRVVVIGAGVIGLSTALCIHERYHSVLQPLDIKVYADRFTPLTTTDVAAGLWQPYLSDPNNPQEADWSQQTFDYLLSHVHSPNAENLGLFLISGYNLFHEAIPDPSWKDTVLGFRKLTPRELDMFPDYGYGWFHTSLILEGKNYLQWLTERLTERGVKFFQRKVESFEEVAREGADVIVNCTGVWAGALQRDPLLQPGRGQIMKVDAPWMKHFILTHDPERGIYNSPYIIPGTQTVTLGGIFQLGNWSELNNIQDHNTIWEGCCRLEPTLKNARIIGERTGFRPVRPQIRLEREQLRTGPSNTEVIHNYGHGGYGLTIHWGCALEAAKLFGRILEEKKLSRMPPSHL

Compound: CCCCC/C=C\C/C=C\C/C=C\C/C=C\CCCC(=O)NCCO [anandamide]
- cell viability (as assessed by trypan blue) (MCF-7 cells): No significant decrease in cell viability

- inhibition of DAO (DAO): inhibitor of DAO
Compound: COc1ccc2c(c1)c(CC(=O)O)c(C)n2C(=O)c1ccc(Cl)cc1 [indomethacin]
- expression of CCR3, the receptor for eotaxin (CCR3): reduces expression of CCR3

Compound: Cc1c(CC(=O)O)c2cc(O)ccc2n1C(=O)c1ccc(Cl)cc1 [desmethyl metabolite, (1-(4-chlorobenzoyl)-5-hydroxy-2-methyl-1H-indol-3-yl]acetic acid]
- ability to inhibit prostaglandin synthesis (prostaglandin synthesis): has some ability to inhibit prostaglandin synthesis
